Assay results reported in US20100323990A1, “SHIP 1 MODULATOR PRODRUGS” (THE UNIVERSITY OF BRITISH COLUMBIA, priority 2006, published 2010).

Assays:
[1] = system: plasma TNFα; assay: Mouse endotoxemia model (Assay 6), plasma TNFα by ELISA; type: in vivo, mice; settings: for Assay 6: Mouse endotoxemia model, desired activity: oral, 30 min prior to IP 2 mg/kg LPS, plasma TNFα 2 hrs later
Procedure: Assay 1) In vitro testing in a SHIP enzyme assay. Test compounds were dissolved in a suitable solvent (e.g. EtOH, DMSO and others) and diluted into aqueous buffer (20 mM Tris HCl, pH 7.5 and 10 mM MgCl2). SHIP enzyme assays were performed in 96-well microtitre plates with 10 ng of enzyme/well in a total volume of 25 μL of 20 mM Tris HCl, pH 7.5 and 10 mM MgCl2. SHIP enzyme was incubated with test extracts (provided in solvent) or vehicle for 15 min at 23° C. before the addition of 100 μM inositol-1,3,4,5-tetrakisphosphate (Echelon Biosciences Inc, Salt Lake City, Utah). After 20 min at 37° C. and the amount of inorganic phosphate released assessed by the addition of Malachite Green reagent and absorbance measurement at 650 nm. Assay 2) Macrophage TNF-α production. J774.1a macrophage cells were treated with 10 μg/mL of test compound dissolved in solvent (e.g. cyclodextran) for 40 minutes prior to the addition of 100 ng/mL LPS. Culture supernatants were collected after 2 hr and 5 hr for TNF-α determination by ELISA. Assay 3) Macrophage TNF-α NO assay. J774.1a macrophage cells were treated with 10 μg/ml of test compound dissolved in solvent for 40 minutes prior to the addition of LPS. Culture supernatants were collected after 24 hr. for determination of NO concentration using the Griess reagent. Assay 4) Stimulation of mast cells by FcεRI crosslinking. Mast cells were pre-loaded overnight in BMMC medium lacking IL-3 with 0.1 μg/ml anti-DNP IgE (SPE-7, Sigma, Oakville, Ont). For calcium flux measurements, cells were incubated with 2 μM fura 2-acetoxymethyl ester (Molecular Probes, Eugene, Oreg.) in Tyrode's buffer at 23° C. for 45 min. Cells were then washed and incubated in the presence of the test compound 30 min prior to stimulation with the indicated concentration of DNP-human serum albumin (DNP-HSA). Calcium influx was monitored by spectrofluorometry as described previously. For analysis of intracellular signaling, cells were pre-loaded with anti-DNP IgE as above, pre-treated with the test compound for 30 min at 37° C. and stimulated with 20 ng/ml DNP-HSA for 5 min. Total cell lysates were then prepared and analyzed for phospho-PKB, phospho-p38^MAPK, phospho-MAPK, Grb-2 (Cell Signalling, Mississauga, Ont) and SHIP^6 by immunoblot analysis. Assay 5) Mouse acute cutaneous anaphylaxis model. 6-8 week old CD1 mice (University of British Columbia Animal Facility, Vancouver, BC) were sensitized to the hapten DNP by cutaneous application of 25 μL of 0.5% dinitrofluorobenzene (DNFB) (Sigma, Oakville, Ont) in acetone to the shaved abdomen of mice for two consecutive days. 24 hrs later, test substances (dissolved in 10 μL of 1:2 DMSO:MeOH) were painted on the right ear while the left ear received vehicle control. 30 min after drug application, DNFB was applied to both ears to induce mast cell degranulation. A 6 mm punch was taken from the ear and immediately frozen on dry ice for subsequent determination of neutrophil myeloperoxidase (MPO) activity. Assay 6) Mouse endotoxemia model. […] The ability of SHIP activators to reduce tumor cell survival was assessed in MM cell lines treated with the test compound. The lines OPM1, OPM2, MM.1S and RPMI 8226 were plated at a density of 1×10^5 cells/mL in 200 μL of medium with various concentrations of the test compound, and viable cell numbers were determined on day 3 and day 5 by trypan blue exclusion. […]

[2] = system: luciferase expressing OPM2 cells; assay: In vivo Multiple Myeloma (MM) assay (Assay 8), OPM2 xenograft; design: species or system mice; settings: 50 mg/kg every 3 days, subcutaneous oil depot
Procedure: Assay 8) In vivo Multiple Myeloma (MM) assay. Mice were inoculated with at two sites each with 3×10^6 luciferase expressing OPM2 cells suspended in 50 μL of growth medium and 50 μL of Matrigel basement membrane matrix (Becton Dickenson; Bedford, Mass.). Tumors were injected subcutaneously in the upper and lower flanks of the mice and allowed to establish for 2 weeks. After 2 weeks, a test compound or control vehicle was administered in a subcutaneous oil depot at a dose of 50 mg/kg every 3 days.
Tumors were measured using bioluminescence imaging on the Xenogen IVIS 200. Mice received intra-peritoneal injections of 200 μL of D-luciferin at 3.75 mg/mL in sterile PBS. Mice were then anesthetized with isofluorane and imaged 15 minutes post-injection of luciferin. Quantification of tumor size was performed using the Living Image™ software.
MM Xenograft murine model. Mice were inoculated with at two sites each with 3×10^6 luciferase expresseing OPM2 cells suspended in 50 μL of growth medium and 50 μL of Matrigel basement membrane matrix (Becton Dickenson; Bedford, Mass.). Tumors were injected subcutaneously in the upper and lower flanks of the mice and allowed to establish for 2 weeks. […]
Tumors were measured using bioluminescence imaging on the Xenogen IVIS 200. […] Quantification of tumor size was performed using the Living Image™ software. […]

[3] = Initial toxicology studies; type: in vivo; settings: data not shown
Description: A novel paradigm for inhibiting PI3K signaling through activation of the phosphatases that negatively regulate this pathway is provided. SHIP is a particularly good target for immune/hematopoietic disorders because of its restricted expression to hematopoietic cells. Because the relative activity of phosphatases present in a cell will influence the efficacy of kinase inhibitors, as discussed by Knight and Shokat, SHIP agonists may also be used to potentiate the activation of PI3K inhibitors and promote tissue targeting of PI3K inhibitors to the ematopoietic/immune cell compartment.

[4] = system: CD1 mice sensitized to the hapten DNP; assay: Mouse acute cutaneous anaphylaxis model (Assay 5); type: in vivo; settings: for Assay 5: Mouse acute cutaneous anaphylaxis model, desired activity: topical on ear, DNFB challenge, MPO activity

| Compound | Assay 6: Mouse endotoxemia model, desired activity [1] | Assay 8: In vivo Multiple Myeloma (MM) assay, desired activity [2] | peripheral blood cell counts and bone marrow progenitor numbers [3] | tolerability [3] | Assay 5: Mouse acute cutaneous anaphylaxis model, desired activity [4] | LPS-induced plasma/serum TNFα levels ([1]; oral administration 30 min prior to LPS) | allergen (DNFB)-induced inflammation of the ear ([4]; topically applied, vs vehicle control-treated ear) |
| --- | --- | --- | --- | --- | --- | --- | --- |
| Cc1cc(O)c(O)c2c1[C@]1(C)CCC3C(C)(C)CCC[C@]3(C)[C@H]1C2 (stereo partly drawn) [AQX-016A] | + | + | do not significantly affect | well tolerated | + |  |  |
| Cc1cc(O)cc2c1[C@]1(C)CCC3C(C)(C)CCC[C@]3(C)[C@H]1C2 (stereo partly drawn) [Compound 100] | + | + | do not significantly affect | well tolerated | + | efficiently inhibited | dramatically inhibited allergen-induced inflammation |
